Assay results as given in paper PMC9090415, “Discovery of small molecule inhibitors of Plasmodium falciparum apicoplast DNA polymerase” (Journal of Enzyme Inhibition and Medicinal Chemistry, 2022).

Molecular target: T1, bacteriophage T4 DNA polymerase (Enterobacteria phage T4, UniProt P04415)
T1 construct: made in house
T1 sequence (P04415 1-898): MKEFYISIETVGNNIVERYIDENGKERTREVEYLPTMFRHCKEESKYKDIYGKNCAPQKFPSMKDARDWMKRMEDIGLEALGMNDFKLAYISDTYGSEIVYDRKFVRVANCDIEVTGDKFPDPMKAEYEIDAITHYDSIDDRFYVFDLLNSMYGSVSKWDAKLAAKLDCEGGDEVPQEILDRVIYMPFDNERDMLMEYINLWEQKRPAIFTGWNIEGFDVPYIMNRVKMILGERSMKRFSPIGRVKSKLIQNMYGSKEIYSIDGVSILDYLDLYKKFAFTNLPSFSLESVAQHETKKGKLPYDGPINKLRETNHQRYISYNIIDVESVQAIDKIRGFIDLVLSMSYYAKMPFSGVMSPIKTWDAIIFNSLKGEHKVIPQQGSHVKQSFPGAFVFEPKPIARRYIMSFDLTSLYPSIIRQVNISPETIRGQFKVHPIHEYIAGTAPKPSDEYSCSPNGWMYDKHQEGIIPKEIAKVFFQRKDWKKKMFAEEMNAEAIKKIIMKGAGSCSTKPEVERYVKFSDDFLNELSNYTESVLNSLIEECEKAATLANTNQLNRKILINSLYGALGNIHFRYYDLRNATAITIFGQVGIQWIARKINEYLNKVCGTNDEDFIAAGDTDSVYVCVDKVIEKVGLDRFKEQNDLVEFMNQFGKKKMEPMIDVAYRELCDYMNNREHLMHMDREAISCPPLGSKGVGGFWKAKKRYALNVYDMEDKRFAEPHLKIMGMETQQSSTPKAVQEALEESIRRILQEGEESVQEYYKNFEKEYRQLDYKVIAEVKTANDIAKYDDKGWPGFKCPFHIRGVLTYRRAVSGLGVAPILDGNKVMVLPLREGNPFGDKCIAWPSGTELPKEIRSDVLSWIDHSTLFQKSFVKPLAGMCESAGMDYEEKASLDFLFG
Assay: Counter-screen against bacteriophage T4 DNA polymerase
Type: biochemical
Conditions: for % inhibition T4 10' 2.5 / % inhibition T4 10' 5 / % inhibition T4 10' 10 / % inhibition T4 10' 20 / % inhibition T4 10' 40 / % inhibition T4 10' 80: read at 10'
Experimental: Codon-optimized, exonuclease-deficient Pf-apPOL was overexpressed in E. coli BL21 (DE3) and purified as described. The protein was dialysed against two, 1-liter changes of 20 mM Tris-HCl (pH 8.0), 400 mM NaCl, and 20% glycerol. Plasmodium bergei and Babesia bovis apPOLs (Pb-apPOL and Bb-apPOL, respectively) were codon-optimized, expressed, and purified as for Pf-apPOL[15]. Bacteriophage T4 DNA polymerase was purified as described. The DNA oligonucleotides used to make the high-throughput substrate were obtained from Integrated DNA Technologies. Deoxynucleotides were purchased from Strategene. All other materials came from Fisher Scientific.
Each compound was tested in a dose-response format to determine IC50 values. […] T4 DNA polymerase can be produced in large quantities, and is in the same family (B-family) as the replicative human DNA polymerases (α, δ, and ε)[20].

## O=[N+]([O-])c1ccc(/C=C/c2ccc3ccccc3n2)o1 [Molecule 21, O=N(=O)c1ccc(o1)/C=C/c1ccc2c(n1)cccc2]
DRC-2, concentration 2.5
  % inhibition T4 10': 23%
  % inhibition T4 40': 25%
  % inhibition T4 90': 23%
DRC-2, concentration 5
  % inhibition T4 10': 25%
DRC-2, concentration 20
  % inhibition T4 40': 37%
DRC-2, concentration 80
  % inhibition T4 40': 32%
  % inhibition T4 90': 37%
DRC-2, concentration 10
  % inhibition T4 90': 32%
  % inhibition T4 180': 25%
DRC-2, concentration 40
  % inhibition T4 180': 37%

## Cl.NC(CO)C(=O)NNCc1ccc(O)c(O)c1O (stereo not drawn) [KU0260493]
DRC-2, concentration 2.5
  % inhibition T4 10': -17%
  % inhibition T4 90': -11%
DRC-2, concentration 10
  % inhibition T4 10': -11%
DRC-2, concentration 5
  % inhibition T4 180': -17%

## CCOC(=O)C1=C2c3cc(OC)c(OC)cc3CC(C)(C)N2C(=O)C1=O [KU0193659]
DRC-2, concentration 2.5
  % inhibition T4 10': 9%
  % inhibition T4 40': 9%
  % inhibition T4 90': 8%
  % inhibition T4 180': 9%
DRC-2, concentration 5
  % inhibition T4 10': 6.54%
  % inhibition T4 40': 6.54%
  % inhibition T4 180': 8%
DRC-2, concentration 10
  % inhibition T4 10': 23%
  % inhibition T4 40': 23%
DRC-2, concentration 20
  % inhibition T4 10': 29%
  % inhibition T4 40': 29%
DRC-2, concentration 40
  % inhibition T4 10': 38%
  % inhibition T4 40': 38%
  % inhibition T4 90': 37%
  % inhibition T4 180': 37%
DRC-2, concentration 80
  % inhibition T4 10': 45%
  % inhibition T4 40': 45%
  % inhibition T4 90': 44%
  % inhibition T4 180': 44%

## Cc1cc2[nH]c(C(=O)Nc3ccc(F)cc3)c(CN3CCOCC3)c2s1 [Molecule 60, Fc1ccc(cc1)NC(=O)c1[nH]c2c(c1CN1CCOCC1)sc(c2)C]
DRC-1, concentration 2.5
  % inhibition T4 10' 2.5: 1.711%
DRC-1, concentration 5
  % inhibition T4 10' 5: 9.215%
DRC-1, concentration 10
  % inhibition T4 10' 10: 21.452%
DRC-1, concentration 20
  % inhibition T4 10' 20: 34.4714%
DRC-1, concentration 40
  % inhibition T4 10' 40: 38.1099%
DRC-1, concentration 80
  % inhibition T4 10' 80: 40.6852%
DRC-1, read at 70', concentration 2.5
  % inhibition T4 70' 2.5: 0.0854%
DRC-1, read at 70', concentration 5
  % inhibition T4 70' 5: 3.336%
DRC-1, read at 70', concentration 10
  % inhibition T4 70' 10: 13.8719%
DRC-1, read at 70', concentration 20
  % inhibition T4 70' 20: 20.2889%
DRC-1, read at 70', concentration 40
  % inhibition T4 70' 40: 27.4388%
DRC-1, read at 70', concentration 80
  % inhibition T4 70' 80: 27.0179%
DRC-1, read at 130', concentration 2.5
  % inhibition T4 130' 2.5: -1.799%
DRC-1, read at 130', concentration 5
  % inhibition T4 130' 5: 0.5371%
DRC-1, read at 130', concentration 10
  % inhibition T4 130' 10: 9.245%
DRC-1, read at 130', concentration 20
  % inhibition T4 130' 20: 15.4607%
DRC-1, read at 130', concentration 40
  % inhibition T4 130' 40: 21.1797%
DRC-1, read at 130', concentration 80
  % inhibition T4 130' 80: 22.3923%
DRC-2, concentration 2.5
  % inhibition T4 10' 2.5: 5.28%
DRC-2, concentration 5
  % inhibition T4 10' 5: 2.77%
DRC-2, concentration 10
  % inhibition T4 10' 10: 13%
DRC-2, concentration 20
  % inhibition T4 10' 20: 21%
DRC-2, concentration 40
  % inhibition T4 10' 40: 25%
DRC-2, concentration 80
  % inhibition T4 10' 80: 25%
DRC-2, read at 40', concentration 2.5
  % inhibition T4 40' 2.5: 3.64%
DRC-2, read at 40', concentration 5
  % inhibition T4 40' 5: 2.11%
DRC-2, read at 40', concentration 10
  % inhibition T4 40' 10: 12%
DRC-2, read at 40', concentration 20
  % inhibition T4 40' 20: 21%
DRC-2, read at 40', concentration 40
  % inhibition T4 40' 40: 26%
DRC-2, read at 40', concentration 80
  % inhibition T4 40' 80: 27%
DRC-2, read at 90', concentration 2.5
  % inhibition T4 90' 2.5: 4%
DRC-2, read at 90', concentration 5
  % inhibition T4 90' 5: 2.34%
DRC-2, read at 90', concentration 10
  % inhibition T4 90' 10: 12%
DRC-2, read at 90', concentration 20
  % inhibition T4 90' 20: 19%
DRC-2, read at 90', concentration 40
  % inhibition T4 90' 40: 24%
DRC-2, read at 90', concentration 80
  % inhibition T4 90' 80: 25%
DRC-2, read at 180', concentration 2.5
  % inhibition T4 180' 2.5: -1.07%
DRC-2, read at 180', concentration 5
  % inhibition T4 180' 5: -2.8%
DRC-2, read at 180', concentration 10
  % inhibition T4 180' 10: 6%
DRC-2, read at 180', concentration 20
  % inhibition T4 180' 20: 13%
DRC-2, read at 180', concentration 40
  % inhibition T4 180' 40: 20%
DRC-2, read at 180', concentration 80
  % inhibition T4 180' 80: 23%

## O=C(CSc1nnc(-c2ccco2)[nH]1)c1ccc(Cl)cc1 [KU0029065]
DRC-2, concentration 10
  % inhibition T4 40': 3%
  % inhibition T4 180': -2%
DRC-2, concentration 40
  % inhibition T4 40': -2%
DRC-2, concentration 2.5
  % inhibition T4 90': -13%
  % inhibition T4 180': -13%
DRC-2, concentration 20
  % inhibition T4 90': 3%

## Cc1ccc2c(C(=O)NCCc3cccnc3)cc(NC(=O)C(C)C)cc2n1 [KU0206096]
DRC-2, concentration 5
  % inhibition T4 10': 8%
DRC-2, concentration 10
  % inhibition T4 10': 30%
  % inhibition T4 90': 28%
DRC-2, concentration 80
  % inhibition T4 10': 35%
  % inhibition T4 180': 34%
DRC-2, concentration 2.5
  % inhibition T4 40': 8%
DRC-2, concentration 20
  % inhibition T4 40': 35%
  % inhibition T4 90': 30%
DRC-2, concentration 40
  % inhibition T4 90': 34%
  % inhibition T4 180': 28%

## COc1ccc(-c2n[nH]cc2Oc2ccc(Cl)cc2)c(O)c1 [KU0029837]
DRC-2, concentration 2.5
  % inhibition T4 10': -22%
  % inhibition T4 40': -22%
  % inhibition T4 90': -22%
  % inhibition T4 180': -26%
DRC-2, concentration 5
  % inhibition T4 10': -28%
  % inhibition T4 40': -28%
DRC-2, concentration 10
  % inhibition T4 10': -25%
  % inhibition T4 40': -25%
  % inhibition T4 90': -26%
  % inhibition T4 180': -30%
DRC-2, concentration 20
  % inhibition T4 10': -25%
  % inhibition T4 40': -25%
  % inhibition T4 90': -25%
  % inhibition T4 180': -30%
DRC-2, concentration 40
  % inhibition T4 10': -19%
  % inhibition T4 40': -19%
DRC-2, concentration 80
  % inhibition T4 10': -34%
  % inhibition T4 40': -34%
  % inhibition T4 90': -34%

## Cc1ccc(NC(=O)C2CCN(C(=O)c3cc4ccsc4[nH]3)CC2)c(Br)c1 [Molecule 14, O=C(C1CCN(CC1)C(=O)c1cc2c([nH]1)scc2)Nc1ccc(cc1Br)C]
DRC-2, concentration 20
  % inhibition T4 10': 5%
  % inhibition T4 40': 5%
DRC-2, concentration 40
  % inhibition T4 10': 10%
  % inhibition T4 40': 8%
  % inhibition T4 90': 6%
DRC-2, concentration 80
  % inhibition T4 10': 10%
  % inhibition T4 40': 10%
  % inhibition T4 90': 8%

## O=C(Cn1ccc2c(=O)[nH]ccc21)Nc1cc(F)ccc1F [Molecule 42, O=C(Cn1ccc2c1cc[nH]c2=O)Nc1cc(F)ccc1F]
DRC-2, concentration 2.5
  % inhibition T4 10': -1.82%
  % inhibition T4 180': -1.82%
DRC-2, concentration 5
  % inhibition T4 10': -13%
DRC-2, concentration 20
  % inhibition T4 10': -4%
  % inhibition T4 40': -4%
DRC-2, concentration 80
  % inhibition T4 10': -13%
  % inhibition T4 40': -13%
  % inhibition T4 180': -13%

## CC(=O)c1cc2c(N)c(/C(N)=N/C#N)sc2nc1C [KU0015866]
DRC-2, concentration 2.5
  % inhibition T4 10': -16%
  % inhibition T4 40': -16%
  % inhibition T4 180': -20%
DRC-2, concentration 5
  % inhibition T4 10': -17%
  % inhibition T4 40': -17%
  % inhibition T4 90': -16%
  % inhibition T4 180': -23%
DRC-2, concentration 10
  % inhibition T4 10': -18%
  % inhibition T4 40': -18%
  % inhibition T4 90': -18%
DRC-2, concentration 20
  % inhibition T4 10': -17%
  % inhibition T4 40': -17%
  % inhibition T4 90': -18%
  % inhibition T4 180': -23%
DRC-2, concentration 40
  % inhibition T4 10': -11%
  % inhibition T4 40': -11%
  % inhibition T4 90': -11%
  % inhibition T4 180': -16%
DRC-2, concentration 80
  % inhibition T4 10': -21%
  % inhibition T4 40': -21%
  % inhibition T4 90': -20%
